Among the data in ChEMBL document CHEMBL2073837, “Inhibitory effects of pomelo on the metabolism of tacrolimus and the activities of CYP3A4 and P-glycoprotein” (Drug Metab Dispos, 2004) are Activity values, retold here.

In series [1] the target is T1, ATP-dependent translocase ABCB1 (Homo sapiens, UniProt P08183). Briefly: TP_TRANSPORTER: transepithelial transport of digoxin (apical to basal) (Digoxin: 20-30uM) in MDR1-expressing LLC-GA5-COL150 cell. To be noted: pig. Format: functional, cell-based.
The target in series [2] is T1, ATP-dependent translocase ABCB1. Briefly: TP_TRANSPORTER: transepithelial transport of tacrolimus (apical to basal) (Tacrolimus: 1.38-1.48uM) in MDR1-expressing LLC-GA5-COL150 cell. Format: functional, cell-based. To be noted: pig.

T1 sequence (P08183 whole entry): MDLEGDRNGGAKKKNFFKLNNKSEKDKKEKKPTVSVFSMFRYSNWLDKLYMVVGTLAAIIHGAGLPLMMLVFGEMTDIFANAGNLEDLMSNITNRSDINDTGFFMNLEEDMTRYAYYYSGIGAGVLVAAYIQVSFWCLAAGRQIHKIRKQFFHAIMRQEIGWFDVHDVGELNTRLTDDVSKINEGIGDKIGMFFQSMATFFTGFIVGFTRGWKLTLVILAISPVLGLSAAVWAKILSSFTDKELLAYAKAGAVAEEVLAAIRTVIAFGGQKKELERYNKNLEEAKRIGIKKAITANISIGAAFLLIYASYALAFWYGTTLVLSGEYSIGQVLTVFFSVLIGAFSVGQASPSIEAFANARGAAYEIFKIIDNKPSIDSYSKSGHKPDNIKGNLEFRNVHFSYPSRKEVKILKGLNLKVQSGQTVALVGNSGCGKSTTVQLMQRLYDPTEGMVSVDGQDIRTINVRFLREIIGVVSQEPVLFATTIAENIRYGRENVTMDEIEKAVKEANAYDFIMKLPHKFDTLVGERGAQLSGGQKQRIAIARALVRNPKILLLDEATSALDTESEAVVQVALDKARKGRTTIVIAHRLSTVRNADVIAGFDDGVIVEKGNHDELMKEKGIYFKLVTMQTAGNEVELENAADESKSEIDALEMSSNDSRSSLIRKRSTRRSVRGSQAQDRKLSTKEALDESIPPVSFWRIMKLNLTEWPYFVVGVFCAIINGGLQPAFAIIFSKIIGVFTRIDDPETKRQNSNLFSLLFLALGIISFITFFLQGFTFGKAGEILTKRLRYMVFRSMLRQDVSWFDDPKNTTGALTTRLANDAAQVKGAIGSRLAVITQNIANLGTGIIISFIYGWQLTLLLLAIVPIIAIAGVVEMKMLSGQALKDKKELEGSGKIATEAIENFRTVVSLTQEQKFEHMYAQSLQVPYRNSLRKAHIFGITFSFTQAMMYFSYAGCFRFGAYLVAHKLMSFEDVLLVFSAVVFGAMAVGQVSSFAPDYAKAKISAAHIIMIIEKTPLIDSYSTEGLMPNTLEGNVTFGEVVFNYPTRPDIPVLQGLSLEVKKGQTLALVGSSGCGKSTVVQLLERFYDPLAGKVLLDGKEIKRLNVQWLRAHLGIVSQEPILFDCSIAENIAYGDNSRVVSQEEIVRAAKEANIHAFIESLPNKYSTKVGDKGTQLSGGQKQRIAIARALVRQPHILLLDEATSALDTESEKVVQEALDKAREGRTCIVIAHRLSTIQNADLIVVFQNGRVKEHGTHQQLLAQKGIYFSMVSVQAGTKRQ

Regarding `CC[C@H]1OC(=O)[C@H](C)[C@@H](O[C@H]2C[C@@](C)(OC)[C@@H](O)[C@H](C)O2)[C@H](C)[C@@H](O[C@@H]2O[C@H](C)C[C@H](N(C)C)[C@H]2O)[C@](C)(OC)C[C@@H](C)C(=O)[C@H](C)[C@@H](O)[C@]1(C)O` [CLARITHROMYCIN], the Activity result in series [1] was “inhibitor [+]”. BANPEIYU: the Activity result in series [2] and in series [1] was “inhibitor [+]” throughout. Take GRAPEFRUIT JUICE: the Activity entry in series [2] and in series [1] was “inhibitor [+]” each time.
